# Measured values published in US8569344B2, “N-piperidinyl acetamide derivatives as calcium channel blockers” (Zalicus Pharmaceuticals Ltd., priority 2008, dated 2013).
# pIC50: −log10 of the molar value.
# Key:
# [1] = biological target: T1, human α1H T-type channels (Homo sapiens, UniProt O95180); experiment: T-type calcium channel block, whole cell patch clamp in HEK cells (α1H); format: cell-based; conditions: HEK cells, patch clamp, mainly non-inactivated protocol; values above 10 μM shown as 10 μM; read-out: T-type Calcium Channel Block α1H IC50
# T1 construct: expressed in transfected cells; host or cells: HEK 293
# T1 sequence (O95180 whole entry): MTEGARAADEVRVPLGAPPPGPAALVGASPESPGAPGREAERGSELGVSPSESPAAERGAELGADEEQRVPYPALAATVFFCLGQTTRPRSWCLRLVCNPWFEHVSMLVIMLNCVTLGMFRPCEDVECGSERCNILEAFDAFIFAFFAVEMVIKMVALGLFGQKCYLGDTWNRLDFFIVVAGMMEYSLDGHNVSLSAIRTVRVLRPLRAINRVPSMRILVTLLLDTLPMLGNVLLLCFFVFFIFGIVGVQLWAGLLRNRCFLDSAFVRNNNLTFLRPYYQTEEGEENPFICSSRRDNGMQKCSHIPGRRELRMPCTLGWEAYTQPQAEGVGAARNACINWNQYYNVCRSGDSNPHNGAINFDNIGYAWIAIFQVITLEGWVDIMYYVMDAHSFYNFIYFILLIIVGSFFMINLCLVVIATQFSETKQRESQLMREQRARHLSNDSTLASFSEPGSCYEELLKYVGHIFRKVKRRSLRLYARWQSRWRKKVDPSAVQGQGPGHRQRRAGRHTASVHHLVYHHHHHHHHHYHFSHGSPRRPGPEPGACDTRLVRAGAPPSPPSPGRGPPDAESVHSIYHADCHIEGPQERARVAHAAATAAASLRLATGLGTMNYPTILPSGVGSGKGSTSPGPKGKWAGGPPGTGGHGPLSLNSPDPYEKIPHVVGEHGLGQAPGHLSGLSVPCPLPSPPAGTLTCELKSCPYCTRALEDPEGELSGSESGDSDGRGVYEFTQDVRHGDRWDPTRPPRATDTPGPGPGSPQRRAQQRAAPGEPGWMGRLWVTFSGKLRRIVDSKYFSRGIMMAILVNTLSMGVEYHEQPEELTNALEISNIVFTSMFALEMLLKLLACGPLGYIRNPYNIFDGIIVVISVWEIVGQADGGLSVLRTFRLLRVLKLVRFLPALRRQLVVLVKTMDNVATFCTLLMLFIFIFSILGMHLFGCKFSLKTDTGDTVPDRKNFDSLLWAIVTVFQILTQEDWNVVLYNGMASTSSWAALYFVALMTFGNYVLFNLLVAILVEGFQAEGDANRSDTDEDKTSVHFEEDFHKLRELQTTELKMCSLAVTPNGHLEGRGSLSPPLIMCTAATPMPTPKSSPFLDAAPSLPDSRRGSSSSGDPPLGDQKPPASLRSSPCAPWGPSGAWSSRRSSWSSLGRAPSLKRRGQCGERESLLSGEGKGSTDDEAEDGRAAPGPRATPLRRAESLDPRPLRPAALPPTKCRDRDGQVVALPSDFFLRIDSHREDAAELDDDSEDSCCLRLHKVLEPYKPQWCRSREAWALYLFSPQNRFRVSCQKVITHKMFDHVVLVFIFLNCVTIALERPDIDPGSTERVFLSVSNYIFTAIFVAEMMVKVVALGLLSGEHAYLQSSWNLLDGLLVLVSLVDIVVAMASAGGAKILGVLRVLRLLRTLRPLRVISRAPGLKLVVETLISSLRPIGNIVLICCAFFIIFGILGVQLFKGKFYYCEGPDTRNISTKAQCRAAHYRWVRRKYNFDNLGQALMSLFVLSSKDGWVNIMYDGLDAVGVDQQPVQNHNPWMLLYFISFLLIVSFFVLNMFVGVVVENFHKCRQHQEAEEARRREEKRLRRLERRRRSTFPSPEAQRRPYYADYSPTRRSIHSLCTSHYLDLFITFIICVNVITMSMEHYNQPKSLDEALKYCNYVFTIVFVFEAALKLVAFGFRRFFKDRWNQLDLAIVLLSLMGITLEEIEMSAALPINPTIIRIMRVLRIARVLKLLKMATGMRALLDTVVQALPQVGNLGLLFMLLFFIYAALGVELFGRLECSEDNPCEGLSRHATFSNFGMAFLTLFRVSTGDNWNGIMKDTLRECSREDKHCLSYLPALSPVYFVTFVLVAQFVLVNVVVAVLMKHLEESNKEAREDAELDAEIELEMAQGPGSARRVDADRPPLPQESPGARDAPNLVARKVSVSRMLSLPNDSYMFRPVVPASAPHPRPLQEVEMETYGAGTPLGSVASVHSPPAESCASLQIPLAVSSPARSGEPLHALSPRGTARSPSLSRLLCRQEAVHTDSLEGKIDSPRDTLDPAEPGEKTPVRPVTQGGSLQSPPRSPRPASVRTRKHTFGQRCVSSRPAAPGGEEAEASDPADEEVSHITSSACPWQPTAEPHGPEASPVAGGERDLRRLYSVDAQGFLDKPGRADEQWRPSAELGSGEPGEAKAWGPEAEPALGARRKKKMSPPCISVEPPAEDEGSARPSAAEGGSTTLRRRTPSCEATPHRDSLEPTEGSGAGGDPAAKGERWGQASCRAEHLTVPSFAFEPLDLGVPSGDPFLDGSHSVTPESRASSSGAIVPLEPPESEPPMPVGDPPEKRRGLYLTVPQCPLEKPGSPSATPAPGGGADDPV
# Protocol: T-type calcium channel blocking activity was assayed in human embryonic kidney cells, HEK 293, stably transfected with the T-type calcium channel subunits. Briefly, cells were cultured in Dulbecco's modified eagle medium (DMEM) supplemented with 10% fetal bovine serum, 200 U/ml penicillin and 0.2 mg/ml streptomycin at 37° C. with 5% CO2. At 85% confluency cells were split with 0.25% trypsin/1 mM EDTA and plated at 10% confluency on glass coverslips. […] Fresh DMEM was supplied and the cells transferred to 28° C./5% CO2. Cells were incubated for 1 to 2 days prior to whole cell recording.
# Standard patch-clamp techniques were employed to identify blockers of T-type currents. Briefly, previously described HEK cell lines stably expressing human α1G, α1H and α1I T-type channels were used for all the recordings (passage #: 4-20, 37° C., 5% CO2). Whole cell patch clamp experiments were performed using an Axopatch 200B amplifier (Axon Instruments, Burlingame, Calif.) linked to a personal computer equipped with pCLAMP software. Data were analyzed using Clampfit (Axon Instruments) and SigmaPlot 4.0 (Jandel Scientific). To obtain T-type currents, plastic dishes containing semi-confluent cells were positioned on the stage of a ZEISS AXIOVERT S100 microscope after replacing the culture medium with external solution (see below). Whole-cell patches were obtained using pipettes (borosilicate glass with filament, O.D.: 1.5 mm, I.D.: 0.86 mm, 10 cm length), fabricated on a SUTTER P-97 puller with resistance values of ˜5 MΩ (see below for internal solution).
# In the non-inactivating protocol, the holding potential is set at −110 mV and with a pre-pulse at −100 mV for 1 second prior to the test pulse at −40 mV for 50 ms.
# Test compounds were dissolved in external solution, 0.1-0.01% DMSO. After ˜10 min rest, they were applied by gravity close to the cell using a WPI microfil tubing. The “non-inactivated” pre-pulse was used to examine the resting block of a compound. The “inactivated” protocol was employed to study voltage-dependent block. […] Values are shown in μM and values above 10 μM are simply represented as 10 μM.
# [2] = biological target: T2, human α1G T-type channels (Homo sapiens, UniProt O43497); experiment: T-type calcium channel block, whole cell patch clamp in HEK cells (α1G); format: cell-based; conditions: HEK cells, patch clamp, mainly non-inactivated protocol; values above 10 μM shown as 10 μM, below 0.30 μM shown as 0.30 μM; read-out: T-type Calcium Channel Block α1G IC50
# T2 construct: expressed in transfected cells; host or cells: HEK 293
# T2 sequence (O43497 whole entry): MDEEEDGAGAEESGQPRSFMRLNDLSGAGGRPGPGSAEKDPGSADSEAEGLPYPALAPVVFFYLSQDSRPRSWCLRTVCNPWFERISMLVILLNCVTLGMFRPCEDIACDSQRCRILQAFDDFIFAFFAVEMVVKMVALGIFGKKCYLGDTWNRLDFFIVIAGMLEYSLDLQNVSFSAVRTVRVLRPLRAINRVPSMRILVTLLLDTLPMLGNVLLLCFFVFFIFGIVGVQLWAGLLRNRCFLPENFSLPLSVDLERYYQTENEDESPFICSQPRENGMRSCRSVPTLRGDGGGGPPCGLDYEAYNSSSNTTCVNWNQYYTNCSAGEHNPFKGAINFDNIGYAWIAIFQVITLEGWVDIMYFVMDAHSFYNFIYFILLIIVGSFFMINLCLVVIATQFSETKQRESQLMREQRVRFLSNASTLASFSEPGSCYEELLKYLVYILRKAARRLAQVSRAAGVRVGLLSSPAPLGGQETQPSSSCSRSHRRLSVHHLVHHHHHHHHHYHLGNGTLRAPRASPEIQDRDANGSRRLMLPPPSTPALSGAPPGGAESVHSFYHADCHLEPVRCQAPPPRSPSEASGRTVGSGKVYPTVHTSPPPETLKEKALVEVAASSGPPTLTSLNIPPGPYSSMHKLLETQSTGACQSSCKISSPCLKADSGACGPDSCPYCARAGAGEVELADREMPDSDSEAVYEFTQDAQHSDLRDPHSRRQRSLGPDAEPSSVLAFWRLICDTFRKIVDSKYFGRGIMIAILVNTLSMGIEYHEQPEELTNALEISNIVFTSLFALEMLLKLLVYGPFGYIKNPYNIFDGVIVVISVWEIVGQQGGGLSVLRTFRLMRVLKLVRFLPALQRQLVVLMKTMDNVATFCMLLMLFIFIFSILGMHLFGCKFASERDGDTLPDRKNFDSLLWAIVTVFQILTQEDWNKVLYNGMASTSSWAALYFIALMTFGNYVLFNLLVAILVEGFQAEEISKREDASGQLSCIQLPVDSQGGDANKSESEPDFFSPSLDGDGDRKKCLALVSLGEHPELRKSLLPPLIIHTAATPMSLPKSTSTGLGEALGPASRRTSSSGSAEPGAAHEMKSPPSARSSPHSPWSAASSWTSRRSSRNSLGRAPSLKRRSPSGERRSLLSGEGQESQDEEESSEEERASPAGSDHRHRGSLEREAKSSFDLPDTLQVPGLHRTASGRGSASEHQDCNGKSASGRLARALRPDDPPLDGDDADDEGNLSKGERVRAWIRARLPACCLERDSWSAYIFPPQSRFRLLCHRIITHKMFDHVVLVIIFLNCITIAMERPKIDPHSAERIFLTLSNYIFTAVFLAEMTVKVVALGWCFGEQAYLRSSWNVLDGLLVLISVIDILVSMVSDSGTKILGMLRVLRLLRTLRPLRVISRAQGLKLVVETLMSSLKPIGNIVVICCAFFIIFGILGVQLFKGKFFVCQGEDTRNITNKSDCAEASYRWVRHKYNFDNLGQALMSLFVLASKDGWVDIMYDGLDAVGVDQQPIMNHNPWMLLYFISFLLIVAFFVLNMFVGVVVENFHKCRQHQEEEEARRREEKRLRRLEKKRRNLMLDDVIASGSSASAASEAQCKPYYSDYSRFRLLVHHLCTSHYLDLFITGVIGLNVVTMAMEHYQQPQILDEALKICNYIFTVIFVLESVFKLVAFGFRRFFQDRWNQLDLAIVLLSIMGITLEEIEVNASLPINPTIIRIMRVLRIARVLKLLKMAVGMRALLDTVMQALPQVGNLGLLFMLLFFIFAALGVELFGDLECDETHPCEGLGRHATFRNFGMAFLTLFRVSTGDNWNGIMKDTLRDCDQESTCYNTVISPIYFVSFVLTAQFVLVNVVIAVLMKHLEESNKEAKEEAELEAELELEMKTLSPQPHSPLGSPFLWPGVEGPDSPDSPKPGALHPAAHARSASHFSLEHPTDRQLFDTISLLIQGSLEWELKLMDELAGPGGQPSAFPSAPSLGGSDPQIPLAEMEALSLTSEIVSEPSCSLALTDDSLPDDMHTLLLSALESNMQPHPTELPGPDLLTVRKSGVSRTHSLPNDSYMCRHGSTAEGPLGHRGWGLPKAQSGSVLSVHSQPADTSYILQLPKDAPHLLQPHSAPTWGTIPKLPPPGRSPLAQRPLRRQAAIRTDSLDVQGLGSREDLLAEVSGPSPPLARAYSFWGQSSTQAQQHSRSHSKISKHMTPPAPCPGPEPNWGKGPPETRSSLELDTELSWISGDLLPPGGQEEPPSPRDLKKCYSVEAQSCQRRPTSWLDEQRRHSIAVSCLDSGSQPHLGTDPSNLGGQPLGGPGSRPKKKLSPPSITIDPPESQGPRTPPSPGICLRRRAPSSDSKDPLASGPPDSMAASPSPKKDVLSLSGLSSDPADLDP
SMILES,pIC50 [1],pIC50 [2]
"CS(=O)(=O)NC1(CN2CCC(CNC(=O)c3cc(C(F)(F)F)cc(C(F)(F)F)c3)CC2)CCCC1 [Compound 1, N-((1-((1-(methylsulfonamido)cyclopentyl)methyl)piperidin-4-yl)methyl)-3,5-bis(trifluoromethyl)benzamide]",6.43,6.00
"O=C(NCC1CCN(CC2(NS(=O)(=O)C3CC3)CCCC2)CC1)c1cc(C(F)(F)F)cc(C(F)(F)F)c1 [Compound 2, N-((1-((1-(cyclopropanesulfonamido)cyclopentyl)methyl)piperidin-4-yl)methyl)-3,5-bis(trifluoromethyl)benzamide]",6.27,> 6.52
"CCS(=O)(=O)NC1(CN2CCC(CNC(=O)c3cc(C(F)(F)F)cc(C(F)(F)F)c3)CC2)CCCC1 [Compound 3, N-((1-((1-(ethylsulfonamido)cyclopentyl)methyl)piperidin-4-yl)methyl)-3,5-bis(trifluoromethyl)benzamide]",6.26,> 6.52
"CCNC(=O)NC1(CN2CCC(CNC(=O)c3cc(C(F)(F)F)cc(C(F)(F)F)c3)CC2)CCCC1 [Compound 11, N-((1-((1-(3-ethylureido)cyclopentyl)methyl)piperidin-4-yl)methyl)-3,5-bis(trifluoromethyl)benzamide]",5.42,5.72
"CCCNC(=O)NC1(CN2CCC(CNC(=O)c3cc(C(F)(F)F)cc(C(F)(F)F)c3)CC2)CCCC1 [Compound 13, N-((1-((1-(3-propylureido)cyclopentyl)methyl)piperidin-4-yl)methyl)-3,5-bis(trifluoromethyl)benzamide]",5.73,6.20
"O=C(NC1CCCCC1)NC1(CN2CCC(CNC(=O)c3cc(C(F)(F)F)cc(C(F)(F)F)c3)CC2)CCCC1 [Compound 14, N-((1-((1-(3-cyclohexylureido)cyclopentyl)methyl)piperidin-4-yl)methyl)-3,5-bis(trifluoromethyl)benzamide]",5.93,> 6.52
"CC(C)NC(=O)NC1(CN2CCC(CNC(=O)c3cc(C(F)(F)F)cc(C(F)(F)F)c3)CC2)CCCC1 [Compound 15, N-((1-((1-(3-isopropylureido)cyclopentyl)methyl)piperidin-4-yl)methyl)-3,5-bis(trifluoromethyl)benzamide]",5.52,5.99
"CCOC(=O)NC1(CN2CCC(CNC(=O)c3cc(C(F)(F)F)cc(C(F)(F)F)c3)CC2)CCCC1 [Compound 17, ethyl 1-((4-((3,5-bis(trifluoromethyl)benzamido)methyl)piperidin-1-yl)methyl)cyclopentylcarbamate]",6.92,> 6.52
"CC(C)COC(=O)NC1(CN2CCC(CNC(=O)c3cc(C(F)(F)F)cc(C(F)(F)F)c3)CC2)CCCC1 [Compound 18, isobutyl 1-((4-((3,5-bis(trifluoromethyl)benzamido)methyl)piperidin-1-yl)methyl)cyclopentyl-carbamate]",7.10,> 6.52
"O=C(NCC1CCN(CCNS(=O)(=O)C2CC2)CC1)c1cc(C(F)(F)F)cc(C(F)(F)F)c1 [Compound 19, N-((1-(2-(cyclopropanesulfonamido)ethyl)piperidin-4-yl)methyl)-3,5-bis(trifluoromethyl)benzamide]",6.13,5.76
"O=C(NCC1CCN(CCNS(=O)(=O)C(F)(F)F)CC1)c1cc(C(F)(F)F)cc(C(F)(F)F)c1 [Compound 21, 3,5-bis(trifluoromethyl)-N-((1-(2-(trifluoromethylsulfonamido)ethyl)piperidin-4-yl)methyl)benzamide]",6.23,5.44

# Next, values leading:
pIC50 [1],pIC50 [2],SMILES
5.78,6.32,"CC(C)(C)NC(=O)NC1(CN2CCC(CNC(=O)c3cc(C(F)(F)F)cc(C(F)(F)F)c3)CC2)CCCC1 [Compound 12, N-((1-((1-(3-tert-butylureido)cyclopentyl)methyl)piperidin-4-yl)methyl)-3,5-bis(trifluoromethyl)benzamide]"
6.72,> 6.52,"COC(=O)NC1(CN2CCC(CNC(=O)c3cc(C(F)(F)F)cc(C(F)(F)F)c3)CC2)CCCC1 [Compound 16, methyl 1-((4-((3,5-bis(trifluoromethyl)benzamido)methyl)piperidin-1-yl)methyl)cyclopentyl-carbamate]"
6.40,> 6.52,"CC(C)S(=O)(=O)NCCN1CCC(CNC(=O)c2cc(C(F)(F)F)cc(C(F)(F)F)c2)CC1 [Compound 20, N-((1-(2-(1-methylethylsulfonamido)ethyl)piperidin-4-yl)methyl)-3,5-bis(trifluoromethyl)benzamide]"
6.80,6.39,"CC(C)(C)OC(=O)NCCN1CCC(CNC(=O)c2cc(C(F)(F)F)cc(C(F)(F)F)c2)CC1 [Compound 35, tert-butyl 2-(4-((3,5-bis(trifluoromethyl)benzamido)methyl)piperidin-1-yl)ethylcarbamate]"
5.77,5.37,"CCOC(=O)NCCN1CCC(CNC(=O)c2cc(C(F)(F)F)cc(C(F)(F)F)c2)CC1 [Compound 36, ethyl 2-(4-((3,5-bis(trifluoromethyl)benzamido)methyl)piperidin-1-yl)ethylcarbamate]"
6.77,> 6.52,"CC(C)COC(=O)NCCN1CCC(CNC(=O)c2cc(C(F)(F)F)cc(C(F)(F)F)c2)CC1 [Compound 37, isobutyl 2-(4-((3,5-bis(trifluoromethyl)benzamido)methyl)piperidin-1-yl)ethylcarbamate]"
6.09,–,"O=C(NCC1CCN(C2CN(C(=O)c3cccc(OC(F)(F)F)c3)C2)CC1)c1cc(F)cc(Cl)c1 [Compound 603, 3-chloro-5-fluoro-N-((1-(1-(3-(trifluoromethoxy)benzoyl)azetidin-3-yl)piperidin-4-yl)methyl)benzamide]"
5.72,–,"O=C(NCC1CCN(C2CN(C(=O)c3cc(F)cc(C(F)(F)F)c3)C2)CC1)c1cc(F)cc(Cl)c1 [Compound 604, 3-chloro-5-fluoro-N-((1-(1-(3-fluoro-5-(trifluoromethyl)benzoyl)azetidin-3-yl)piperidin-4-yl)methyl)benzamide]"
5.45,–,"O=C(NCC1CCN(C2CN(C(=O)c3cc(F)cc(Cl)c3)C2)CC1)c1cc(F)cc(Cl)c1 [Compound 605, 3-chloro-N-((1-(1-(3-chloro-5-fluorobenzoyl)azetidin-3-yl)piperidin-4-yl)methyl)-5-fluorobenzamide]"
5.48,–,"O=C(NCC1CCN(C2CN(C(=O)c3cccc(Cl)c3)C2)CC1)c1cc(F)cc(Cl)c1 [Compound 606, 3-chloro-N-((1-(1-(3-chlorobenzoyl)azetidin-3-yl)piperidin-4-yl)methyl)-5-fluorobenzamide]"
5.50,–,"CC(C)(C)C(=O)N1CC(N2CCC(CNC(=O)c3cc(F)cc(Cl)c3)CC2)C1 [Compound 607, 3-chloro-5-fluoro-N-((1-(1-pivaloyl-azetidin-3-yl)piperidin-4-yl)methyl) benzamide]"
< 5.00,–,"CC1(C(=O)N2CC(N3CCC(CNC(=O)c4cc(F)cc(Cl)c4)CC3)C2)CC1 [Compound 608, 3-chloro-5-fluoro-N-((1-(1-(1-methylcyclopropanecarbonyl)azetidin-3-yl)piperidin-4-yl)methyl)benzamide]"
5.52,–,"O=C(NCC1CCN(C2CN(C(=O)C3(C(F)(F)F)CC3)C2)CC1)c1cc(F)cc(Cl)c1 [Compound 609, 3-chloro-5-fluoro-N-((1-(1-(1-(trifluoromethyl)cyclopropanecarbonyl)azetidin-3-yl)piperidin-4-yl)methyl) benzamide]"
6.11,–,"O=C(NCC1CCN(C2CN(C(=O)C3(C(F)(F)F)CCC3)C2)CC1)c1cc(F)cc(Cl)c1 [Compound 610, 3-chloro-5-fluoro-N-((1-(1-(1-(trifluoromethyl)cyclobutanecarbonyl)azetidin-3-yl)piperidin-4-yl)methyl) benzamide]"
6.54,–,"CC1(C(=O)N2CC(N3CCC(CNC(=O)c4cc(F)cc(Cl)c4)CC3)C2)CCC(F)(F)CC1 [Compound 611, 3-chloro-N-((1-(1-(4,4-difluoro-1-methylcyclohexanecarbonyl)azetidin-3-yl)piperidin-4-yl)methyl)-5-fluorobenzamide]"
< 5.00,–,"CC(C)(C)NC(=O)N1CC(N2CCC(CNC(=O)c3cc(F)cc(Cl)c3)CC2)C1 [Compound 612, N-tert-butyl-3-(4-((3-chloro-5-fluorobenzamido)methyl)piperidin-1-yl)azetidin-1-carboxamide]"
